ChEMBL document CHEMBL1212927, “Synthesis and structure-activity relationships of novel 8a-aza-8a-homoerythromycin A ketolides” (2010)
≈ marks a conversion by molar mass, not a printed value.

Columns and labels:
[1] = system: Staphylococcus aureus; test: Antibacterial activity against inducible macrolide-lincosamide-streptogramin B-resistant Staphylococcus aureus B0538 by agar microdilution method; assay type: functional
[2] = system: Staphylococcus aureus; test: Antibacterial activity against constitutive macrolide-lincosamide-streptogramin B-resistant Staphylococcus aureus B0330 by agar microdilution method; assay type: functional
[3] = system: Staphylococcus aureus; test: Antibacterial activity against efflux-resistant Staphylococcus aureus B0331 by agar microdilution method; assay type: functional
[4] = system: Streptococcus pneumoniae; test: Antibacterial activity against constitutive macrolide-lincosamide-streptogramin B-resistant Streptococcus pneumoniae B0627 by agar microdilution method; assay type: functional
[5] = system: Streptococcus pneumoniae; test: Antibacterial activity against efflux-resistant Streptococcus pneumoniae B0326 by agar microdilution method; assay type: functional
[6] = system: Streptococcus pyogenes; test: Antibacterial activity against inducible macrolide-lincosamide-streptogramin B-resistant Streptococcus pyogenes B0543 by agar microdilution method; assay type: functional
[7] = system: Streptococcus pyogenes; test: Antibacterial activity against constitutive macrolide-lincosamide-streptogramin B-resistant Streptococcus pyogenes B0544 by agar microdilution method; assay type: functional
[8] = system: Streptococcus pyogenes; test: Antibacterial activity against efflux-resistant Streptococcus pyogenes B0545 by agar microdilution method; assay type: functional
[9] = system: Moraxella catarrhalis; test: Antibacterial activity against Moraxella catarrhalis B0324 by agar microdilution method; assay type: functional
[10] = system: Haemophilus influenzae; test: Antibacterial activity against Haemophilus influenzae B0529 by agar microdilution method; assay type: functional
[11] = system: Staphylococcus aureus; test: Antibacterial activity against erythromycin A-susceptible Staphylococcus aureus B0329 by agar microdilution method
[12] = system: Streptococcus pneumoniae; test: Antibacterial activity against erythromycin-susceptible Streptococcus pneumoniae B0541 by agar microdilution method
[13] = system: Streptococcus pyogenes; test: Antibacterial activity against erythromycin A-susceptible Streptococcus pyogenes B0542 by agar microdilution method

SMILES | MIC [1] | MIC [2] | MIC [3] | MIC [4] | MIC [5] | MIC [6] | MIC [7] | MIC [8] | MIC [9] | MIC [10] | MIC [11] | MIC [12] | MIC [13]
CC[C@H]1OC(=O)[C@H](C)C(=O)[C@H](C)[C@@H](O[C@@H]2O[C@H](C)C[C@H](N(C)C)[C@H]2O)[C@](C)(OCC(O)CN2CCN(c3cnc4ccccc4c3)CC2)C[C@@H](C)NC(=O)[C@H](C)[C@@H](O)[C@]1(C)O (some centres undefined) | 2 µg/mL (≈ 2.33 µM) | > 64 µg/mL | 0.5 µg/mL (≈ 0.583 µM) | 4 µg/mL (≈ 4.66 µM) | 1 µg/mL (≈ 1.17 µM) | 8 µg/mL (≈ 9.32 µM) | 32 µg/mL (≈ 37.3 µM) | 4 µg/mL (≈ 4.66 µM) | 4 µg/mL (≈ 4.66 µM) | 8 µg/mL (≈ 9.32 µM) | 1 µg/mL (≈ 1.17 µM) | ≤ 0.125 µg/mL | ≤ 0.125 µg/mL
CC[C@H]1OC(=O)[C@H](C)C(=O)[C@H](C)[C@@H](O[C@@H]2O[C@H](C)C[C@H](N(C)C)[C@H]2O)[C@](C)(OCC(O)CN2CCN(c3ccc4ncccc4c3)CC2)C[C@@H](C)NC(=O)[C@H](C)[C@@H](O)[C@]1(C)O (some centres undefined) | 0.25 µg/mL (≈ 0.291 µM) | > 64 µg/mL | 2 µg/mL (≈ 2.33 µM) | 1 µg/mL (≈ 1.17 µM) | 0.5 µg/mL (≈ 0.583 µM) | 0.25 µg/mL (≈ 0.291 µM) | 4 µg/mL (≈ 4.66 µM) | 2 µg/mL (≈ 2.33 µM) | 1 µg/mL (≈ 1.17 µM) | 2 µg/mL (≈ 2.33 µM) | 0.25 µg/mL (≈ 0.291 µM) | ≤ 0.125 µg/mL | ≤ 0.125 µg/mL
CC[C@H]1OC(=O)[C@H](C)C(=O)[C@H](C)[C@@H](O[C@@H]2O[C@H](C)C[C@H](N(C)C)[C@H]2O)[C@](C)(OCC(O)CNCCc2ccccn2)C[C@@H](C)NC(=O)[C@H](C)[C@@H](O)[C@]1(C)O (mixture of isomers) | 8 µg/mL | > 64 µg/mL | 8 µg/mL | 8 µg/mL | 16 µg/mL | 4 µg/mL | 32 µg/mL | 4 µg/mL | 4 µg/mL | 32 µg/mL | 8 µg/mL | 1 µg/mL | 0.25 µg/mL
CC[C@H]1OC(=O)[C@H](C)C(=O)[C@H](C)[C@@H](O[C@@H]2O[C@H](C)C[C@H](N(C)C)[C@H]2O)[C@](C)(OCC(O)CNCCc2ccccc2)C[C@@H](C)NC(=O)[C@H](C)[C@@H](O)[C@]1(C)O (mixture of isomers) | 16 µg/mL | > 64 µg/mL | 8 µg/mL | 8 µg/mL | 16 µg/mL | 1 µg/mL | 16 µg/mL | 1 µg/mL | 0.5 µg/mL | 16 µg/mL | 4 µg/mL | 0.25 µg/mL | 0.5 µg/mL
CC[C@H]1OC(=O)[C@H](C)C(=O)[C@H](C)[C@@H](O[C@@H]2O[C@H](C)C[C@H](N(C)C)[C@H]2O)[C@](C)(OCC(O)CNCCCCc2ccccc2)C[C@@H](C)NC(=O)[C@H](C)[C@@H](O)[C@]1(C)O (mixture of isomers) | 2 µg/mL | > 64 µg/mL | 2 µg/mL | 1 µg/mL | 4 µg/mL | 0.5 µg/mL | 8 µg/mL | 0.5 µg/mL | ≤ 0.125 µg/mL | 8 µg/mL | 2 µg/mL | ≤ 0.125 µg/mL | 0.25 µg/mL
CC[C@H]1OC(=O)[C@H](C)C(=O)[C@H](C)[C@@H](O[C@@H]2O[C@H](C)C[C@H](N(C)C)[C@H]2O)[C@](C)(OCC(O)CN[C@H](C)Cc2ccc(OC)cc2)C[C@@H](C)NC(=O)[C@H](C)[C@@H](O)[C@]1(C)O (mixture of isomers) | 2 µg/mL | > 64 µg/mL | 4 µg/mL | 2 µg/mL | 16 µg/mL | 1 µg/mL | 8 µg/mL | 1 µg/mL | 0.5 µg/mL | 16 µg/mL | 1 µg/mL | ≤ 0.125 µg/mL | 0.5 µg/mL
CC[C@H]1OC(=O)[C@H](C)C(=O)[C@H](C)[C@@H](O[C@@H]2O[C@H](C)C[C@H](N(C)C)[C@H]2O)[C@](C)(OCC(O)CNCCc2ccc([N+](=O)[O-])cc2)C[C@@H](C)NC(=O)[C@H](C)[C@@H](O)[C@]1(C)O (mixture of isomers) | 1 µg/mL | > 64 µg/mL | 1 µg/mL | ≤ 0.125 µg/mL | 0.5 µg/mL | 0.25 µg/mL | 1 µg/mL | 0.25 µg/mL | ≤ 0.125 µg/mL | 1 µg/mL | ≤ 0.125 µg/mL | ≤ 0.125 µg/mL | ≤ 0.125 µg/mL
CC[C@H]1OC(=O)[C@H](C)C(=O)[C@H](C)[C@@H](O[C@@H]2O[C@H](C)C[C@H](N(C)C)[C@H]2O)[C@](C)(OCC(O)CN[C@H](C)Cc2ccc([N+](=O)[O-])cc2)C[C@@H](C)NC(=O)[C@H](C)[C@@H](O)[C@]1(C)O (mixture of isomers) | 2 µg/mL | > 64 µg/mL | 2 µg/mL | 2 µg/mL | 1 µg/mL | 0.5 µg/mL | 4 µg/mL | 0.5 µg/mL | 0.25 µg/mL | 1 µg/mL | 0.5 µg/mL | ≤ 0.125 µg/mL | ≤ 0.125 µg/mL
